# In PubChem BioAssay (NCI):
#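 GI50 is the concentration that inhibits growth by half. Definition used: TGI = concentration required for complete inhibition of growth.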
# How the values were obtained:
# Experiment in all cases: DTP human tumour cell line panel, 384-well format
# 786-0 renal = system: 786-0 renal
# A498 renal = system: A498 renal
# A549 NSCLC = system: A549 NSCLC
# ACHN renal = system: ACHN renal
# BT-549 breast = system: BT-549 breast
# CAKI-1 renal = system: CAKI-1 renal
# CCRF-CEM leukemia = system: CCRF-CEM leukemia
# COLO 205 colon = system: COLO 205 colon
# DU-145 prostate = system: DU-145 prostate
# EKVX NSCLC = system: EKVX NSCLC
# HCC-2998 colon = system: HCC-2998 colon
# HCT-116 colon = system: HCT-116 colon
# HCT-15 colon = system: HCT-15 colon
# HL-60(TB) leukemia = system: HL-60(TB) leukemia
# HOP-62 NSCLC = system: HOP-62 NSCLC
# HOP-92 NSCLC = system: HOP-92 NSCLC
# HS 578T breast = system: HS 578T breast
# HT29 colon = system: HT29 colon
# IGROV1 ovarian = system: IGROV1 ovarian
# K-562 leukemia = system: K-562 leukemia
# KM12 colon = system: KM12 colon
# LOX IMVI melanoma = system: LOX IMVI melanoma
# M14 melanoma = system: M14 melanoma
# MALME-3M melanoma = system: MALME-3M melanoma
# MCF7 breast = system: MCF7 breast
# MDA-MB-231 breast = system: MDA-MB-231 breast
# MDA-MB-435 melanoma = system: MDA-MB-435 melanoma
# MDA-MB-468 breast = system: MDA-MB-468 breast
# MOLT-4 leukemia = system: MOLT-4 leukemia
# NCI-H226 lung = system: NCI-H226 lung
# NCI-H23 lung = system: NCI-H23 lung
# NCI-H322M lung = system: NCI-H322M lung
# NCI-H460 NSCLC = system: NCI-H460 NSCLC
# NCI-H522 lung = system: NCI-H522 lung
# NCI/ADR-RES ovarian = system: NCI/ADR-RES ovarian
# OVCAR-3 ovarian = system: OVCAR-3 ovarian
# OVCAR-4 ovarian = system: OVCAR-4 ovarian
# OVCAR-8 ovarian = system: OVCAR-8 ovarian
# PC-3 prostate = system: PC-3 prostate
# RPMI-8226 leukemia = system: RPMI-8226 leukemia
# RXF 393 renal = system: RXF 393 renal
# SF-268 CNS = system: SF-268 CNS
# SF-295 CNS = system: SF-295 CNS
# SF-539 CNS = system: SF-539 CNS
# SK-MEL-28 melanoma = system: SK-MEL-28 melanoma
# SK-MEL-5 melanoma = system: SK-MEL-5 melanoma
# SK-OV-3 ovarian = system: SK-OV-3 ovarian
# SN12C renal = system: SN12C renal
# SNB-19 CNS = system: SNB-19 CNS
# SNB-75 CNS = system: SNB-75 CNS
# SR leukemia = system: SR leukemia
# SW-620 colon = system: SW-620 colon
# T-47D breast = system: T-47D breast
# TK-10 renal = system: TK-10 renal
# U251 glioblastoma = system: U251 glioblastoma
# UACC-257 melanoma = system: UACC-257 melanoma
# UACC-62 melanoma = system: UACC-62 melanoma
# UO-31 renal = system: UO-31 renal
smiles,measurement,setting,value
O=C(O)CSc1cc(NS(=O)(=O)c2ccc(Br)cc2)c2ccccc2c1O,GI50,786-0 renal,6.17 µM
same,TGI,786-0 renal,18.3 µM
same,GI50,A498 renal,16.9 µM
same,TGI,A498 renal,30.6 µM
same,GI50,A549 NSCLC,11.6 µM
same,TGI,A549 NSCLC,23.8 µM
same,GI50,ACHN renal,4.15 µM
same,TGI,ACHN renal,13.6 µM
same,GI50,BT-549 breast,2.93 µM
same,TGI,BT-549 breast,7.45 µM
same,GI50,CAKI-1 renal,10.9 µM
same,TGI,CAKI-1 renal,22.8 µM
same,GI50,CCRF-CEM leukemia,2.02 µM
same,TGI,CCRF-CEM leukemia,3.45 µM
same,GI50,COLO 205 colon,3.12 µM
same,TGI,COLO 205 colon,9.58 µM
same,GI50,DU-145 prostate,2.37 µM
same,TGI,DU-145 prostate,5.24 µM
same,GI50,EKVX NSCLC,1.92 µM
same,TGI,EKVX NSCLC,3.63 µM
same,GI50,HCC-2998 colon,11.7 µM
same,TGI,HCC-2998 colon,23.9 µM
same,GI50,HCT-116 colon,2.19 µM
same,TGI,HCT-116 colon,4.15 µM
same,GI50,HCT-15 colon,10.6 µM
same,TGI,HCT-15 colon,22.4 µM
same,GI50,HL-60(TB) leukemia,1.82 µM
same,TGI,HL-60(TB) leukemia,3.22 µM
same,GI50,HOP-62 NSCLC,3.02 µM
same,TGI,HOP-62 NSCLC,8.45 µM
same,GI50,HOP-92 NSCLC,2.24 µM
same,TGI,HOP-92 NSCLC,4.57 µM
same,GI50,HS 578T breast,1.63 µM
same,TGI,HS 578T breast,3.04 µM
same,GI50,HT29 colon,3.94 µM
same,TGI,HT29 colon,11.9 µM
same,GI50,IGROV1 ovarian,2.69 µM
same,TGI,IGROV1 ovarian,6.51 µM
same,GI50,K-562 leukemia,1.39 µM
same,TGI,K-562 leukemia,2.71 µM
same,GI50,KM12 colon,4.91 µM
same,TGI,KM12 colon,16.2 µM
same,GI50,LOX IMVI melanoma,1.79 µM
same,TGI,LOX IMVI melanoma,3.26 µM
same,GI50,M14 melanoma,3.11 µM
same,TGI,M14 melanoma,7.41 µM
same,GI50,MALME-3M melanoma,1.95 µM
same,TGI,MALME-3M melanoma,3.38 µM
same,GI50,MCF7 breast,1.62 µM
same,TGI,MCF7 breast,3.15 µM
same,GI50,MDA-MB-231 breast,1.89 µM
same,TGI,MDA-MB-231 breast,3.72 µM
same,GI50,MDA-MB-435 melanoma,2 µM
same,TGI,MDA-MB-435 melanoma,3.43 µM
same,GI50,MDA-MB-468 breast,1.39 µM
same,TGI,MDA-MB-468 breast,2.7 µM
same,GI50,MOLT-4 leukemia,1.96 µM
same,TGI,MOLT-4 leukemia,3.39 µM
same,GI50,NCI-H226 lung,6.7 µM
same,TGI,NCI-H226 lung,18.5 µM
same,GI50,NCI-H23 lung,1.82 µM
same,TGI,NCI-H23 lung,3.94 µM
same,GI50,NCI-H322M lung,16.2 µM
same,TGI,NCI-H322M lung,29.7 µM
same,GI50,NCI-H460 NSCLC,13.5 µM
same,TGI,NCI-H460 NSCLC,26.3 µM
same,GI50,NCI-H522 lung,7.47 µM
same,TGI,NCI-H522 lung,20 µM
same,GI50,NCI/ADR-RES ovarian,2.22 µM
same,TGI,NCI/ADR-RES ovarian,4.79 µM
same,GI50,OVCAR-3 ovarian,0.404 µM
same,TGI,OVCAR-3 ovarian,1.69 µM
same,GI50,OVCAR-4 ovarian,1.73 µM
same,TGI,OVCAR-4 ovarian,3.12 µM
same,GI50,OVCAR-8 ovarian,1.92 µM
same,TGI,OVCAR-8 ovarian,3.97 µM
same,GI50,PC-3 prostate,2.38 µM
same,TGI,PC-3 prostate,5.77 µM
same,GI50,RPMI-8226 leukemia,1.63 µM
same,TGI,RPMI-8226 leukemia,3.37 µM
same,GI50,RXF 393 renal,1.75 µM
same,TGI,RXF 393 renal,3.44 µM
same,GI50,SF-268 CNS,2.4 µM
same,TGI,SF-268 CNS,6.02 µM
same,GI50,SF-295 CNS,6.61 µM
same,TGI,SF-295 CNS,19 µM
same,GI50,SF-539 CNS,2.2 µM
same,TGI,SF-539 CNS,3.72 µM
same,GI50,SK-MEL-28 melanoma,2.25 µM
same,TGI,SK-MEL-28 melanoma,4.05 µM
same,GI50,SK-MEL-5 melanoma,1.98 µM
same,TGI,SK-MEL-5 melanoma,3.52 µM
same,GI50,SK-OV-3 ovarian,5.22 µM
same,TGI,SK-OV-3 ovarian,16.6 µM
same,GI50,SN12C renal,2.03 µM
same,TGI,SN12C renal,3.64 µM
same,GI50,SNB-19 CNS,5.03 µM
same,TGI,SNB-19 CNS,15.4 µM
same,GI50,SNB-75 CNS,2.19 µM
same,TGI,SNB-75 CNS,4.5 µM
same,GI50,SR leukemia,2.6 µM
same,TGI,SR leukemia,4.08 µM
same,GI50,SW-620 colon,2.42 µM
same,TGI,SW-620 colon,6.09 µM
same,GI50,T-47D breast,2.61 µM
same,TGI,T-47D breast,5.11 µM
same,GI50,TK-10 renal,14.2 µM
same,TGI,TK-10 renal,27.2 µM
same,GI50,U251 glioblastoma,2.55 µM
same,TGI,U251 glioblastoma,6.16 µM
same,GI50,UACC-257 melanoma,1.65 µM
same,TGI,UACC-257 melanoma,3.03 µM
same,GI50,UACC-62 melanoma,1.91 µM
same,TGI,UACC-62 melanoma,3.33 µM
same,GI50,UO-31 renal,2.05 µM
same,TGI,UO-31 renal,3.91 µM
